Molecules are shown by their SMILES.

For this test, the target named is AKT-1 (Homo sapiens, UniProt P31749). Nature of the test: AKT kinase inhibition assay: Dowex technique (AKT1, Aktide substrate). The note with it: AKT1 5 nM, Aktide 30 μM, ATP 132 μM, 60 min rt. The class given is biochemical. The text has this:
Method for AKT Kinase Inhibition Assay: Dowex Technique
General Principle for Kinase Inhibition Assays
Specific peptide or protein substrates are trans-phosphorylated by their specific serine -threonine or tyrosine kinase, in the presence of ATP traced with ^33Pγ-ATP, and in the presence of their own optimal buffer and cofactors.
At the end of the phosphorylation reaction, more than 98% cold ATP and radioactive ATP is captured by an excess of the ion exchange dowex resin; the resin then settles down to the bottom of the reaction plate by gravity.
Supernatant, containing the phosphorylated substrate, is subsequently withdrawn and transferred into a counting plate, then evaluated by β-counting.
• TRIS 50 mM, pH 7.5 • MgCl2 10 mM • DTT 1 mM • NaVO3 […] • BSA 0.2 mg/ml • Assay conditions (final concentrations) for AKT1 • Enzyme concentration (AKT1)=5 nM • Substrate concentration (Aktide, 14 residues peptide, from PRIMM)=30 μM • ATP=132 μM • ^33P-γ-ATP=0.88 nM Robotized Dowex Assay
The “test” mixture consisted of: • 1) 3× Enzyme mix (done in Kinase Buffer 3×), 5 μl/well • 2) 3× substrate and ATP mix (done in DDH2O), together with ^33P-γ-ATP, 5 μl/well • 3) 3× test compounds (diluted into DDH2O-3% DMSO)-5 μl/well Dilution of Compounds
Test compounds are received as 100% DMSO solution at the indicated concentrations: • i—for % inhibition studies, individual dilution plates at 1 mM, 100 μM and 10 μM are prepared in 100% DMSO, then diluted at a 3× concentration (30, 3 and 0.3 μM) in DDH2O, 3% DMSO. A Multimek 96 (Beckman) is used for dilutions and compound pipetting into the test plates • ii—for IC50 determination, compounds are received as 1 mM, 100% DMSO solutions, plated into the first column of a microtiter plate (A1 to G1), 100 μl.
Well H1 is left empty for the internal standard inhibitor, staurosporine.
A Biomek 2000 (Beckman) is used for serial 1:3 dilutions in water, 3% DMSO, from column A1 to A10 and for all the seven compounds in the plate. In a standard experiment, the highest concentration of all compounds is 30 μM, then diluted in the final test mixture down to 10 μM.
384-well plates, V bottom (test plates) are prepared with 5 μl of the compound dilution (3×) and then placed onto a PlateTrak 12 robotized station (Perkin Elmer; the robot has one 384-tips pipetting head for starting the assay plus one 96-tips head for dispensing the resin) together with one reservoir for the Enzyme mix (3×) and one for the ATP mix (3×).
At the start of the run, the robot aspirates 5 μl of ATP mix, makes an air gap inside the tips (3 μl) and aspirates 5 μl of AKT mix. The following dispensation into the plates allows the kinase reaction to start upon 3 cycles of mixing, done by the robot itself.
The robot incubates the plates for 60 minutes at room temperature, and then stops the reaction by pipetting 70 μl of dowex resin suspension into the reaction mix. Three cycles of mixing are done immediately after the addition of the resin.
Another mixing cycle is performed after all the plates are stopped, this time using normal tips: the plates are then allowed to rest for about one hour in order to maximize ATP capture. At this point, 20 μl of the supernatant are transferred into 384-Optiplates (Perkin-Elmer), with 70 μl of Microscint 40 (Perkin-Elmer); after 5 min of orbital shaking the plates are read on a Perkin-Elmer Top Count radioactivity counter.
Data are analysed by an internally customized version of the SW package “Assay Explorer” that provides either % inhibition for primary assays or sigmoidal fittings of the ten-dilutions curves for IC50 determination, for the secondary assays/hit confirmation routines.

Sequence of AKT-1 (P31749 whole entry): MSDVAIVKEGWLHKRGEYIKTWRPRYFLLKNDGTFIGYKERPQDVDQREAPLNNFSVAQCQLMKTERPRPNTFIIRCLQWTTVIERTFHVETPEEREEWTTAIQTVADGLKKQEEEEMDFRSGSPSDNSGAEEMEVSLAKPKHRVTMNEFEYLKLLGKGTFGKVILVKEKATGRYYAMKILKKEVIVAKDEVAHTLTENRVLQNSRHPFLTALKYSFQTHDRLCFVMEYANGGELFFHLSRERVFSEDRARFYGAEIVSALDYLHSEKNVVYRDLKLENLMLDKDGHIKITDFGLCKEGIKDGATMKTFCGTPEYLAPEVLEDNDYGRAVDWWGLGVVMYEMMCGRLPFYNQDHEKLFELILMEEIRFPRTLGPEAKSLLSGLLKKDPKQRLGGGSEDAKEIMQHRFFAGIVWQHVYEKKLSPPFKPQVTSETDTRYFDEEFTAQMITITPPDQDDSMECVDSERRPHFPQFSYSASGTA

A word on the IC50: it is the concentration that gives 50% inhibition. On to `NC[C@H](Cc1ccccc1)NC(=O)c1cc2c(n1CC(F)(F)F)-c1ccncc1CC2` [L9, N-[(1S)-2-Amino-1-benzylethyl]-1-(2,2,2-trifluoroethyl)-4,5-dihydro-1H-pyrrolo[2,3-f]isoquinoline-2-carboxamide], for which the IC50 was below 500 nM.

The values above are taken from US8207180B2, “Tricyclic indoles and (4,5-dihydro) indoles” (Nerviano Medical Sciences S.R.L., priority 2006, dated 2012).
